Test results as given in BindingDB's records for doi:10.1016/0960-894X(96)00069-8 (1996).

Target: Carbonic anhydrase 2 (Homo sapiens, UniProt P00918)
Assay: Kinetic constant for binding human carbonic anhydrase II ([…])
Conditions: read-out: kon (M-1-s-1)

NS(=O)(=O)c1ccc(C(=O)NCC(=O)O)cc1 [(4-Sulfamoyl-benzoylamino)-acetic acid]
kon: 3.61e+07 M⁻¹ s⁻¹
